From patent US8476197B2, “Aminopropenoates as fungicides” (priority 2009, dated 2013) come the findings set out here.

Molecules are shown by their SMILES. Marks after values point to notes of the source that are not given here.

For one series the following is noted: pH 2.3.
Regarding `C#CCNC(=C(C#N)C(=O)OCC)c1cccnc1Cl` [Compound 1044], the Log P (as a rule, the decadic logarithm of the partition coefficient of the neutral form, usually between octanol and water) turned out to be 2.18.

For `CCOC(=O)C(C#N)=C(NC1CCCCC1C)c1cccnc1Cl` (stereo not shown) [Compound 1066], the “Log P” value was 3.84. For `CCOC(=O)C(C#N)=C(NC1CC2CCC1C2)c1cccnc1Cl` (stereo not shown) [Compound 1080], the “Log P” value stood at 3.59. On the same count and under the same terms, then `CCOC(=O)C(C#N)=C(NC[Si](C)(C)C)c1cccnc1Cl` [Compound 1085], with 3.59.

The same series, now with this note: pH 2.7.
For the compound `C#CC(C)(C)NC(=C(C#N)C(=O)OCC)c1cn(C)cc1C(F)(F)F` [Compound 1038], the “Log P” value was 3.21^[a]. Take `CC#CC(C)(C)NC(=C(C#N)C(=O)OC)c1cccnc1Cl` [Compound 1039]: the “Log P” value is 2.57^[a].

With `CC#CC(C)(C)NC(=C(C#N)C(=O)OCC)c1sccc1C(F)(F)F` [Compound 1040], the “Log P” value is 3.92^[a]. Still for that read-out and setting: the result for `CC#CC(C)(C)NC(=C(C#N)C(=O)OCC)c1sccc1Br` [Compound 1041] reads 3.85^[a]. The same measure, in the same setting: the result for `CC#CC(C)(C)NC(=C(C#N)C(=O)OC)c1sc(C)nc1C(F)(F)F` [Compound 1042] reads 3.35^[a]; that for `CC#CC(C)(C)NC(=C(C#N)C(=O)OCC)c1cn(C)nc1C(F)F` [Compound 1043], 2.9^[a]; that for `C#CC(C)NC(=C(C#N)C(=O)OC)c1cccnc1Cl` (stereo not shown) [Compound 1045], 2.14^[a]. Still for that read-out and setting: the result for `C#CC(C)NC(=C(C#N)C(=O)OCC)c1sccc1C(F)(F)F` (stereo not shown) [Compound 1046] reads 3.25^[a]; that for `C#CC(C)NC(=C(C#N)C(=O)OCC)c1sccc1Br` (stereo not shown) [Compound 1047], 3.17^[a]; that for `C#CC(C)NC(=C(C#N)C(=O)OC)c1sc(C)nc1C(F)(F)F` (stereo not shown) [Compound 1048], 2.73^[a]. In the case of `C#CC(C)NC(=C(C#N)C(=O)OCC)c1cn(C)nc1C(F)F` (stereo not shown) [Compound 1049], the “Log P” value was 2.44^[a].

Take `C#CC(C)NC(=C(C#N)C(=O)OCC)c1sc(C)nc1C(F)(F)F` (stereo not shown) [Compound 1050]: the “Log P” value is 3.06^[a]. Still for that read-out and setting: then `CC#CC(C)NC(=C(C#N)C(=O)OC)c1cccnc1Cl` (stereo not shown) [Compound 1051], with 2.5^[a]; and `CC#CC(C)NC(=C(C#N)C(=O)OCC)c1cccnc1Cl` (stereo not shown) [Compound 1052], with 2.86^[a].

For the compound `CCOC(=O)C(C#N)=C(NC1CC1C(F)(F)F)c1cccnc1Cl` (stereo not shown) [Compound 1054], the “Log P” value is 2.9^[a]. The same measure, in the same setting: then `CCOC(=O)C(C#N)=C(NC1CC1(C)C)c1cccnc1Cl` (stereo not shown) [Compound 1055], with 3.25^[a].

Take `COC(=O)C(C#N)=C(NC1CC(C)CCC1C)c1cccnc1Cl` (stereo not shown) [Compound 1057]: the “Log P” value is 3.73^[a]. Same read-out and setting: then `COC(=O)C(C#N)=C(NC1C(C)CCCC1C)c1cccnc1Cl` (stereo not shown) [Compound 1058], with 3.63^[a].

On to `CCOC1CCCC1NC(=C(C#N)C(=O)OC)c1cccnc1Cl` (stereo not shown) [Compound 1059], for which the “Log P” value was 2.93^[a].

For `CCC1CCCC(C)C1NC(=C(C#N)C(=O)OC)c1cccnc1Cl` (stereo not shown) [Compound 1060], the “Log P” value was 3.99^[a].

As for `CCC1CCCCC1NC(=C(C#N)C(=O)OC)c1cccnc1Cl` (stereo not shown) [Compound 1061], the “Log P” value was 3.63^[a]. With `CCOC(=O)C(C#N)=C(NC1CC1CC)c1cccnc1Cl` (stereo not shown) [Compound 1062], the “Log P” value was 3.27^[a]. Same read-out and setting: then `C#CC1CCCCC1NC(=C(C#N)C(=O)OC)c1cccnc1Cl` (stereo not shown) [Compound 1063], with 2.99^[a].

Take `CCOC(=O)C(C#N)=C(NC1CCC1C)c1cccnc1Cl` (stereo not shown) [Compound 1065]: the “Log P” value was 3.37^[a].

With `CCOC(=O)C(C#N)=C(NC1CC1C)c1cccnc1Cl` (stereo not shown) [Compound 1067], the “Log P” value is 2.86^[a]. On the same count and under the same terms, the result for `CCOC(=O)C(C#N)=C(NC1CC1c1ccccc1)c1cccnc1Cl` (stereo not shown) [Compound 1068] reads 3.44^[a]; that for `COC(=O)C(C#N)=C(NC1CCCC(C(F)(F)F)C1)c1cccnc1Cl` (stereo not shown) [Compound 1069], 3.09^[a]. Still for that read-out and setting: the result for `COC(=O)C(C#N)=C(NC1CCC(C)C(C)C1)c1cccnc1Cl` (stereo not shown) [Compound 1070] reads 3.73^[a]; that for `COC(=O)C(C#N)=C(NC1CC(C(F)(F)F)CC(C(F)(F)F)C1)c1cccnc1Cl` (stereo not shown) [Compound 1071], 3.42^[a]; that for `CCOC(=O)C(C#N)=C(NC1CC(C)C1)c1cccnc1Cl` (stereo not shown) [Compound 1073], 3.3^[a].

`COC(=O)C(C#N)=C(NC1CCCC(C)C1)c1cccnc1Cl` (stereo not shown) [Compound 1074]: the “Log P” value was 3.37^[a]. The same measure, in the same setting: the result for `COC(=O)C(C#N)=C(NC1CCC(C(F)(F)F)CC1)c1cccnc1Cl` (stereo not shown) [Compound 1075] reads 3.04^[a].

In the case of `COC(=O)C(C#N)=C(NC1CCC(C)CC1)c1cccnc1Cl` (stereo not shown) [Compound 1076], the lipophilicity (Log P) is 3.37^[a]. The same measure, in the same setting: the result for `COC(=O)C(C#N)=C(NC1CCC(C(C)(C)C)CC1)c1cccnc1Cl` (stereo not shown) [Compound 1077] reads 4.51^[a]. With `COC(=O)C(C#N)=C(NC1CCc2ccccc21)c1cccnc1Cl` (stereo not shown) [Compound 1078], the “Log P” value is 3.06^[a]. Same read-out and setting: then `CCOC(=O)C(C#N)=C(NC1CCc2ccccc21)c1cn(C)nc1C(F)F` (stereo not shown) [Compound 1079], with 3.42^[a]; and `CCOC(=O)C(C#N)=C(NC1CC2CCC1C2)c1cccnc1Cl` (stereo not shown) [Compound 1081], with 3.7^[a]; and `CCOC(=O)C(C#N)=C(NC1CC2CCC1C2)c1cccnc1Cl` (stereo not shown) [Compound 1082], with 3.74^[a]. Same read-out and setting: then `CCOC(=O)C(C#N)=C(NC1C2CCCCC21)c1cccnc1Cl` (stereo not shown) [Compound 1083], with 3.73^[a]; and `COC(=O)C(C#N)=C(NC1CCCC2CCCCC21)c1cccnc1Cl` (stereo not shown) [Compound 1084], with 4.25^[a]. In the case of `CCOC(=O)C(C#N)=C(NC(C(=O)NC)c1ccccc1)c1cccnc1Cl` (stereo not shown) [Compound 1087], the “Log P” value is 2.43^[a]. Same read-out and setting: then `C#CC1(NC(=C(C#N)C(=O)OC)c2cccnc2Cl)CCCCC1` [Compound 1088], with 2.99^[a]. The same measure, in the same setting: then `CCOC(=O)C(C#N)=C(NC(C)(C)C#Cc1ccc(C#N)cc1)c1sccc1Br` [Compound 1089], with 4.16^[a]. Still for that read-out and setting: the result for `CCOC(=O)C(C#N)=C(NC(C)(C)C#Cc1ccc(C#N)cc1)c1cn(C)nc1C(F)F` [Compound 1090] reads 3.37^[a]. `CCOC(=O)C(C#N)=C(NC(C)(C)C#Cc1ccc(C#N)cc1)c1sccc1C(F)(F)F` [Compound 1091]: the “Log P” value is 4.24^[a]. Still for that read-out and setting: the result for `COC(=O)C(C#N)=C(NC(C)(C)C#Cc1ccc(C#N)cc1)c1sc(C)nc1C(F)(F)F` [Compound 1092] reads 3.78^[a]; that for `CCOC(=O)C(C#N)=C(NC(C)(C)C#Cc1ccc(C#N)cc1)c1sc(C)nc1C(F)(F)F` [Compound 1093], 4.04^[a]; that for `CCOC(=O)C(C#N)=C(NC(C)(C)C#Cc1ccc(C#N)cc1)c1ccsc1Br` [Compound 1094], 4.21^[a].

As to `COC(=O)C(C#N)=C(NC(C)(C)C#Cc1ccc(C)cc1)c1sc(C)nc1C(F)(F)F` [Compound 1095], the “Log P” value was 4.51^[a].

For the compound `CCOC(=O)C(C#N)=C(NC(C)(C)C#Cc1ccc(C)cc1)c1sccc1Br` [Compound 1096], the “Log P” value is 5.05^[a]. Turning to `CCOC(=O)C(C#N)=C(NC(C)(C)C#Cc1ccc(C)cc1)c1cn(C)nc1C(F)F` [Compound 1097], the “Log P” value is 4.11^[a].

Turning to `CCOC(=O)C(C#N)=C(NC(C)(C)C#Cc1ccc(C)cc1)c1sc(C)nc1C(F)(F)F` [Compound 1098], the “Log P” value is 4.92^[a]. On the same count and under the same terms, the result for `CCOC(=O)C(C#N)=C(NC(C)(C)C#CCOC)c1sccc1C(F)(F)F` [Compound 1099] reads 3.55^[a]. Same read-out and setting: the result for `COCC#CC(C)(C)NC(=C(C#N)C(=O)OC)c1sc(C)nc1C(F)(F)F` [Compound 1100] reads 3.06^[a].

As for `CCOC(=O)C(C#N)=C(NC(C)(C)C#CCOC)c1cn(C)nc1C(F)F` [Compound 1101], the “Log P” value is 2.73^[a]. Still for that read-out and setting: then `CCOC(=O)C(C#N)=C(NC(C)(C)C#CCOC)c1sc(C)nc1C(F)(F)F` [Compound 1102], with 3.42^[a]. `CCOC(=O)C(C#N)=C(NC(C)(C)C=C(Cl)Cl)c1sccc1C(F)(F)F` [Compound 1103]: the “Log P” value is 4.26^[a].

For the compound `COC(=O)C(C#N)=C(NC(C)(C)C=C(Cl)Cl)c1sc(C)nc1C(F)(F)F` [Compound 1104], the “Log P” value was 3.73^[a].

Regarding `CCOC(=O)C(C#N)=C(NC(C)(C)C=C(Cl)Cl)c1sccc1Br` [Compound 1105], the “Log P” value was 4.21^[a].

Regarding `CCOC(=O)C(C#N)=C(NC(C)(C)C=C(Cl)Cl)c1cn(C)nc1C(F)F` [Compound 1106], the “Log P” value was 3.31^[a]. In the case of `CCOC(=O)C(C#N)=C(NC(C)CON=C(C)c1ccccc1)c1cccnc1Cl` (stereo not shown) [Compound 1111], the “Log P” value is 3.96^[a].

In the case of `CCOC(=O)C(C#N)=C(NC(C)CON=C(C)c1ccccc1)c1cn(C)nc1C(F)F` (stereo not shown) [Compound 1112], the “Log P” value is 3.83^[a].

Consider `COC(=O)C(C#N)=C(NC1(C(F)(F)F)CCCCC1)c1cccnc1Cl` [Compound 1113], for which the “Log P” value was 2.99^[a]. Still for that read-out and setting: then `CCOC(=O)C(C#N)=C(NC(C)C1=NOCCO1)c1cccnc1Cl` (stereo not shown) [Compound 1117], with 2.11^[a].

As to `CCNC(=O)C(C#N)=C(NC(C)c1ccncn1)c1cccnc1Cl` (stereo not shown) [Compound 1118], the “Log P” value is 1.62^[a]. On the same count and under the same terms, the result for `CC#CC(C)NC(=C(C#N)C(=O)NCC)c1cccnc1Cl` (stereo not shown) [Compound 1119] reads 2.5^[a]; that for `CCNC(=O)C(C#N)=C(NCC(C)c1nccs1)c1cccnc1Cl` (stereo not shown) [Compound 1120], 2.14^[a]; that for `CCOC(=O)C(C#N)=C(NC1CCCCC1C)c1cn(C)nc1C(F)F` (stereo not shown) [Compound 1122], 3.6^[a]. Same read-out and setting: then `CCOC(=O)C(C#N)=C(NC1CCC1)c1cn(C)nc1C(F)F` [Compound 1123], with 2.73^[a].

The series is the same for the next values; noted with them: pH 7.5.
For `C#CCNC(=C(C#N)C(=O)OCC)c1cccnc1Cl` [Compound 1044], the “Log P” value was found to be 2.05. Same read-out and setting: the result for `CCOC(=O)C(C#N)=C(NC1CCCCC1C)c1cccnc1Cl` (stereo not shown) [Compound 1066] reads 3.7. As for `CCOC(=O)C(C#N)=C(NC1CC2CCC1C2)c1cccnc1Cl` (stereo not shown) [Compound 1080], the “Log P” value is 3.57. Same read-out and setting: the result for `CCOC(=O)C(C#N)=C(NC[Si](C)(C)C)c1cccnc1Cl` [Compound 1085] reads 3.46; that for `CCOC(=O)C(C#N)=C(NC(C)COS(C)(=O)=O)c1cccnc1Cl` (stereo not shown) [Compound 1107], 2.17; that for `CCOC(=O)C(C#N)=C(NC(C)CSC#N)c1cccnc1Cl` (stereo not shown) [Compound 1109], 2.35.
